Measurements as given in paper PMC11801377, “A uniquely efficacious type of CFTR corrector with complementary mode of action” (Science Advances, 2024).

Experiments:
[1] = biological target: T1, F508del-CFTR (Homo sapiens, UniProt P13569, DEL508-508); experiment: Pharmacochaperone trafficking assay: F508del-CFTR cell surface expression in U2OS cells; type: cell-based; parameters: host or cells: U2OS (PathHunter U2OS-F508del-CFTR MEM-EA)
Procedure: This assay was adapted from the DiscoverX PathHunter pharmacochaperone trafficking assay, which is based on the enzyme fragment complementation technique. Briefly, the U2OS-F508del-CFTR cell line (DiscoveRx, #93-0987C3) is engineered to coexpress (i) human F508del-CFTR tagged with a Prolink (PK = short β-galactosidase fragment) and (ii) the remainder of the β-galactosidase enzyme [enzyme acceptor (EA)] localized to the PM. Incubation with compounds that increase trafficking of PK-tagged F508del-CFTR to the PM will lead to complementation of the EA fragment to form a functional β-galactosidase enzyme, which is quantified by a chemiluminescence reaction reporting cell surface CFTR expression. The same principle applies to the counterscreen using U2OS-ADRB2(W158A) cells (DiscoveRx, #93-0986C3). Freshly thawed U2OS-F508del-CFTR and U2OS-ADRB2(W158A) were seeded at 3500 or 5000 cells per well, respectively, in 20 μl per well of cell assay medium [McCoy (Life Technologies), 10% FBS, penicillin (100 U/ml), and streptomycin ([…])] in a 384 white low-volume plate (Corning). Predilutions of compounds in dimethyl sulfoxide (DMSO) were prepared in a 384-well polypropylene plate using an automated liquid-handling system. Dilution series were then transferred into cell assay medium in a polypropylene 384-well plate (Greiner) to obtain 5× concentrated aqueous working stocks. Five hours after cell seeding, 5× working stocks (5 μl per well) were added to the cells (20 μl per well) for an incubation overnight at 37°C. The next day, after 2 hours at room temperature, the cell plates were incubated with 10 μl of Flash detection reagent (#93-0247, DiscoverX) for 30 min, and chemiluminescence signals were detected with a microplate reader (Synergy MX, Agilent BioTek). Chemiluminescence data were normalized to the signal of basal vehicle-treated cells, and mean chemiluminescence values were converted to concentration-response curves for determination of EC50 and Emax values (GraphPad Prism).
Both above described cell lines [U2OS-F508del-CFTR and U2OS-ADRB2(W158A)] and assays were also used in the high-throughput screening campaign in which compounds were tested at 10 μM concentration with LUM (3 μM) or propranolol (100 nM) serving as 100% controls.

[2] = test system: F508del.K14A-CFTR; experiment: Site-directed mutagenesis immunoblotting, HEK-TREx, F508del.K14A-CFTR; type: cell-based, human; conditions: 40 h, 2 μM
Excerpt: (§1) The human CFTR expressing HEK cell pools with the mutations described below were generated by integrase-mediated homologous recombination of the CFTR sequence into the T-REx HEK293 background (Thermo Fisher Scientific). This expression system allows the tetracycline-inducible expression of genes of interest from one defined insertion site. Parental T-REx-HEK293 cells were cultivated in growth medium: Dulbecco’s modified Eagle’s medium + GlutaMAX-I (#31966, Life Technologies), 10% dialyzed FBS (Gibco, #26400), penicillin (100 U/ml), streptomycin (100 μg/ml), hygromycin B (0.1 mg/ml; Life Technologies), blasticidin (5 μg/ml; Invitrogen, #R210-01), and 0.1 mM nonessential amino acid solution (Invitrogen, #11140-035). Recombinant T-REx-HEK-CFTR cells were generated by lipofectamine transfection (Life Technologies) of plasmids containing mutated versions of CFTR (RefSeq NM_000492) and then cultivated in selection medium [growth medium containing Geneticin (1 mg/ml) (Invitrogen, #10131-027) instead of hygromycin]. The plasmid constructs were synthetized by GENEART (Thermo Fisher Scientific) and designed with the WT CFTR intron 5 to 6 (880 nucleotides) to prevent leaky expression issues during the cloning process in bacteria. […]

[3] = test system: F508del.L15W-CFTR; experiment: Site-directed mutagenesis immunoblotting, HEK-TREx, F508del.L15W-CFTR; type: cell-based, human; conditions: 40 h, 2 μM
Excerpt: as §1

[4] = biological target: T2, MSD2-NBD2 fragment (M837-L1480-CFTR) (Homo sapiens, UniProt P13569); experiment: Truncated CFTR construct levels (immunoblotting), MSD2-NBD2 fragment; type: cell-based; conditions: HEK-TREx cells, 40 hours; C4a 10 μM
T2 construct: expressed in transfected cells; host or cells: T-REx HEK293
T2 sequence (P13569 837-1480): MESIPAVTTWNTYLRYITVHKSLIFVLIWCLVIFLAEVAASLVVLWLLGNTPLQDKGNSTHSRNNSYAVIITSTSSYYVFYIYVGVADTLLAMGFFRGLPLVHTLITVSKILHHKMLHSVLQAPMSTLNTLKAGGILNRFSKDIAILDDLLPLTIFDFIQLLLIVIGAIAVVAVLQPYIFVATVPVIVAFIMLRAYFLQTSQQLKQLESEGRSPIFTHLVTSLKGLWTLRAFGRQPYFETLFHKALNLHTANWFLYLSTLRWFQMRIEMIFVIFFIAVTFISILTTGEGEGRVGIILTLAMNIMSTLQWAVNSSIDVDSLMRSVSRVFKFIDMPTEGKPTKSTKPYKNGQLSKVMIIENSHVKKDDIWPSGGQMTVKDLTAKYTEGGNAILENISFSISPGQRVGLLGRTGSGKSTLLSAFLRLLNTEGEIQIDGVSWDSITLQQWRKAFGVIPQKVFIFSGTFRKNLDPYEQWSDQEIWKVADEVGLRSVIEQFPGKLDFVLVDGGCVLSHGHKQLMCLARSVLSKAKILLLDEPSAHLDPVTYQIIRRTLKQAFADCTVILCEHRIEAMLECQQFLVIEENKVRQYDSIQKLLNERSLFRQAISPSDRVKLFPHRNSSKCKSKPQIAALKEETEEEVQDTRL
Excerpt: as §1

[5] = biological target: T1, F508del-CFTR; experiment: Halide-sensitive YFP quenching assay in U2OS-F508del-CFTR-YFP cells; type: cell-based; parameters: host or cells: U2OS (PathHunter U2OS-F508del-CFTR MEM-EA)
Procedure: U2OS-F508del-CFTR cells expressing Topaz-YFP F46L/H148Q/I152L were seeded at 20,000 cells per well into 384-well black clear-bottom plates in 40 μl per well growth medium (Mc COY’s 5A, Gibco, 10% FBS, penicillin/streptomycin), containing the various CFTR correctors at the indicated concentrations. The cells were coincubated with the compounds for 24 hours (37°C, 5% CO2). The next day, plates were washed twice with PBS^+ (55 μl per well; PBS containing 0.9 mM Ca^2+ and 0.5 mM Mg^2+). PBS^+ was fully removed, and cells were supplemented with 15 μl PBS^+. Then, 5 μl of 4× concentrated stocks of IVA or vehicle in dilution buffer [PBS^+, 0.1 μM forskolin, and 0.2% bovine serum albumin (fatty acid free) (pH 7.4)] were added and incubated for 30 min in the dark. For experiments with I-172 (Sigma- Aldrich), the inhibitor was added to the mix with either IVA or vehicle to reach a final concentration in cells of 20 μM. Then, plates were transferred to the FLIPR Tetra (fluorescence imaging plate reader; Molecular Devices: excitation: 470 to 495 nm; emission: 526 to 585 nm), baseline fluorescence reading of the YFP signal was performed for 6 s (10 × 0.6 s intervals) after which 25 μl of iodide buffer [137 mM NaI, 2.7 mM KCl, 1.5 mM KH2PO4, 8.1 mM Na2HPO4, 1 mM CaCl2, and 0.5 mM MgCl2 (pH 7.4)] was added, and fluorescence reading was continued for 70 s (50 × 0.6 s intervals; 20 x 2 s intervals) to assess YFP quenching through CFTR-mediated iodide influx. For analysis, fluorescence traces were aligned and normalized at the last time point before iodide addition (normalized fluorescence = 1). Normalized fluorescence values obtained 20 s after the beginning of the assay were used to assess the degree of YFP quenching, i.e., CFTR function (see fig. S1J). […] Then, plates were read and analyzed as above. […] Then, plates were transferred to the FLIPR Tetra and read and analyzed as above.

[6] = test system: CFTR; parameters: method as in earlier work; conditions: ref [27] (GLPG-2737); ref [21], [26], [27] (ELX); cited from earlier work
[7] = U2OS cells, overnight treatment

T1 sequence (P13569 with tags, fused parts or gaps DEL508-508): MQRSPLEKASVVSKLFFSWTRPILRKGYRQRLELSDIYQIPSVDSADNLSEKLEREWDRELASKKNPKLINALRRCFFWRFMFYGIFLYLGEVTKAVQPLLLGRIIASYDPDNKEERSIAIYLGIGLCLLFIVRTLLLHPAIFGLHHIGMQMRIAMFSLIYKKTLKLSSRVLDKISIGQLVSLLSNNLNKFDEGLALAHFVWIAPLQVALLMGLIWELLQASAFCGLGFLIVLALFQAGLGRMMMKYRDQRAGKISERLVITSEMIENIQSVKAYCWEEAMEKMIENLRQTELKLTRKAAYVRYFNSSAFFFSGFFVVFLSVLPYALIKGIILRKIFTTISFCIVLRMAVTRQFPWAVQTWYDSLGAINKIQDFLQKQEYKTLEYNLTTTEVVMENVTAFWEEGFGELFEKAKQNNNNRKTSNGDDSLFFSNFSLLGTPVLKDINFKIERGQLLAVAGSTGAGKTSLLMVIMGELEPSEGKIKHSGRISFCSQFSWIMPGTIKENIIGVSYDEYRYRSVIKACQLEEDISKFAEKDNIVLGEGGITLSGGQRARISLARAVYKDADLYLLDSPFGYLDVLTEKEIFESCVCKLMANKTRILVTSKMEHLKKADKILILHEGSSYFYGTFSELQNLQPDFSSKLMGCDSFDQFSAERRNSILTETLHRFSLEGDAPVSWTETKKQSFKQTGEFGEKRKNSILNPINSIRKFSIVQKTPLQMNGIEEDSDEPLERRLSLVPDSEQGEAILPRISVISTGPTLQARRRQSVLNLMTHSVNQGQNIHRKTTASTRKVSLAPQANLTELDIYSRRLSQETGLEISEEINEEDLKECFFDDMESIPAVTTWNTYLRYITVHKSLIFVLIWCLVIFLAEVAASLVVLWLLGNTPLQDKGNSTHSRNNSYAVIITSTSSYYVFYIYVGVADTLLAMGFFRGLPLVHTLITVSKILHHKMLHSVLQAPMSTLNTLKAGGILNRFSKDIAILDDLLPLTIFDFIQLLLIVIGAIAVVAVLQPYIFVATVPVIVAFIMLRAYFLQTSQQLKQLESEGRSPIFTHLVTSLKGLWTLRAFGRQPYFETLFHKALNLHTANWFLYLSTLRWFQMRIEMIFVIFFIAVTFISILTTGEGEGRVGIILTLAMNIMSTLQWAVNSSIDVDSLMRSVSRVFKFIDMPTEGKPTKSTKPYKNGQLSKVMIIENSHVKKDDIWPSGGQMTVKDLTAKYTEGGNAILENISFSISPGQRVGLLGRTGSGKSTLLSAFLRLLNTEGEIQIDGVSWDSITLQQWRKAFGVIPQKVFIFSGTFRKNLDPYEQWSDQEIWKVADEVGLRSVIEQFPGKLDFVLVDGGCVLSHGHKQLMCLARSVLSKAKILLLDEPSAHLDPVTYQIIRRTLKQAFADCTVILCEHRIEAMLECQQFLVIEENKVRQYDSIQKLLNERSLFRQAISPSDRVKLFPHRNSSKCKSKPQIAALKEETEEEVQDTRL

Which “maximal F508del-CFTR surface expression (Emax)” value [1, 7] does the source give for `C[C@@H]1CN(c2nc(-n3ccc(OCCC4(C(F)(F)F)CC4)n3)ccc2C(=O)NS(=O)(=O)c2ccccc2)C(C)(C)C1` [BAM, bamocaftor] here?
The value was “seven- to ninefold”.

Which “weaker correction by macrocycles as compared to [LUM + BAM]” value [2] does the source give for `COc1nc(C)cc2c1C(=O)NC(C(=O)NCCc1cccc(N=[N+]=[N-])c1)CC(=O)N(C)C(CC(C)C)C(=O)N(C)C(CC1CCCC1)C(=O)NC(Cc1ccccc1)CO2` (stereo not drawn) [IDOR-6A] here?
The value was “two- to fourfold”.

And the “correction by macrocycles versus [LUM + BAM]” value [3]?
Its value is “little difference”.

For `CC(C)CC1C(=O)N(C)CC(=O)NC(Cc2ccccc2)COc2ccccc2C(=O)NC(C(=O)NCCc2ccccc2)CC(=O)N1C` (stereo not drawn) [IDOR-0], which EC50 [1, 7] is on record?
The EC50 was 1600 nM.

And the “maximal F508del-CFTR surface expression (Emax)” value [1, 7]?
The value was 3 fold over baseline.

Which “maximal F508del-CFTR surface expression (Emax)” value [1, 7] does the source give for `O=C(O)c1ccc([C@H]2C[C@@H](NC(=O)C3(c4ccc5c(c4)OC(F)(F)O5)CC3)c3ccc(OC(F)F)cc3O2)cc1` [GAL, galicaftor] here?
The value was “four- to fivefold”.

With `COc1ccc(Cl)cc1Nc1nc(-c2sc(NC(=O)c3ccccc3)nc2C)cs1` [C4a, corrector 4a] as the molecule, how does the “expression of the MSD2-NBD2 fragment” value [4] read?
The value was “increased the expression of its glycosylated and nonglycosylated forms”.

And the “maximal F508del-CFTR surface expression (Emax)” value [1, 7]?
The value was “four- to fivefold”.

And the “additivity in F508del-CFTR surface expression” value ([1]; applied on top of / titrated onto IDOR-4)?
The value was “full additivity or even synergy”.

Which “effect on corrector-induced YFP quenching responses” value ([5]; I-172 20 μM) does the source give for `O=C(O)c1ccc(/C=C2\SC(=S)N(c3cccc(C(F)(F)F)c3)C2=O)cc1` [I-172] here?
Its value is “blocked”.

For `CC(C)(C)c1cc(C(C)(C)C)c(NC(=O)c2c[nH]c3ccccc3c2=O)cc1O` [IVA, ivacaftor], which EC80 of potentiator ([5]; concentration used as ~EC80) is on record?
Its EC80 of potentiator is ~2 nM.

With `COC1CCN(C2CCN(c3cc(C(=O)NS(=O)(=O)N(C)C)nc4c3c(C3CCC3)nn4-c3ccc(F)cc3)CC2)CC1` [GLPG-2737] as the molecule, how does the “acute effect on CFTR currents” value [6] read?
Its value is “acute inhibitory”.
